Measurements taken from patent US12252503B2, “Cannabinoid derivatives” (priority 2019, dated 2025).

Tests used:
human CB1 receptor [1] = molecular target: T1, human CB1 receptor (Homo sapiens, UniProt P21554); assay: CB1 radioligand competitive binding assay ([3H]CP 55,940 displacement); settings: for IC50: membranes of CHO-K1 cells expressing human CB1 receptor, 0.8 nM [3H]CP 55,940
T1 construct: host or cells: CHO-K1 (Chinese hamster ovary) cells, membrane preparation

human CB1 receptor [2] = molecular target: T1, human CB1 receptor; assay: PathHunter β-Arrestin functional assay, CB1 receptor, agonist mode; format: cell-based; settings: PathHunter CHO-K1 CNR1 β-Arrestin cells, normalized to CP55,940
human CB1 receptor [3] = molecular target: T1, human CB1 receptor; assay: PathHunter β-Arrestin functional assay, CB1 receptor, antagonist mode; format: cell-based; settings: range stated for the group of compounds, read-out: IC50 towards human CB1 receptor in antagonist mode
human CB2 receptor = molecular target: T2, human CB2 receptor (Homo sapiens, UniProt P34972); assay: CB2 radioligand competitive binding assay ([3H]CP 55,940 displacement); settings: for Selectivity CB2 (fold difference in selectivity between CB1 and CB2 binding): given in the column of the receptor with the higher binding affinity, 1.00 in both = about the same affinity; for IC50: membranes of CHO-K1 cells expressing human CB2 receptor, 0.6 nM [3H]CP55,940
T2 construct: host or cells: CHO-K1 (Chinese hamster ovary) cells, membrane preparation
T2 sequence (P34972 whole entry): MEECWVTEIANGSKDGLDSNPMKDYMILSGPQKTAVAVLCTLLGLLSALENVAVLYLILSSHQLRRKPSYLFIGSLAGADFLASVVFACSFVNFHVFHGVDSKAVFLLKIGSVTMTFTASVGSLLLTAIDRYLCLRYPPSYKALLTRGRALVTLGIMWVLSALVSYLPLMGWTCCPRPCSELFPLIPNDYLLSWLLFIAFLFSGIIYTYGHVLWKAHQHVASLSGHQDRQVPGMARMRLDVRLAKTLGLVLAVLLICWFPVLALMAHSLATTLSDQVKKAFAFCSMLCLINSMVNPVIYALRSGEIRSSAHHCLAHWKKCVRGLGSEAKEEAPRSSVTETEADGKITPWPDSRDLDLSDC
Description: The membranes were prepared from CHO-K1 (Chinese hamster ovary) cells stably transfected with the human CB2 receptor (Cat. #ES-111-C; Perkin Elmer, Boston, MA). The cells were grown adherently and maintained in Ham's F12 medium containing 10% fetal bovine serum (FBS), penicillin, streptomycin and geneticin (G418) at 37° C. in a humid atmosphere of 5% CO2 following the manufacturer's instructions.
For membrane preparation the cells were washed with PBS and scraped off the plates in cold homogenization buffer (25 mM HEPES (pH 7.4), 2 mM EDTA) containing protease inhibitor cocktail (Sigma Cat. #P8340). The cell suspension was homogenized with a Pro-PK-01200D Polytron Homogenizer (Pro Scientific) and then centrifuged for 30 min at 120,000×g. The supernatant was discarded and the pellet was re-suspended in the homogenization buffer and stored at −80° C. until the time of use.
In this experiment, 3H radiolabeled CP 55,940, i.e. [3H]CP 55,940 (Perkin Elmer, Boston, MA), was used as a radioligand for the CB2 receptor to determine the binding affinity of compounds for the CB2 receptor (Scheme 4; above).
The competition binding experiments (single dose and dose-response) were performed by incubating 0.6 nM of [3H]CP55,940 (specific activity 101 Ci/mmol, Perkin Elmer) and different concentrations of compounds disclosed herein with membranes prepared as above from CHO-K1 cells expressing human CB2 receptor (1 μg of protein/well), 50 mM Tris-HCl (pH 7.4), 5 mM MgCl2, 1 mM CaCl2, and 2 mg/mL BSA.
For the single dose experiments, the compound stocks (usually 10 mM in DMSO) were diluted to working stocks in the binding buffer to give the final compound concentrations of 10 μM and 1 μM. For the dose-response experiments the test compounds were sequentially diluted to provide the desired concentration range for the IC50 determination. In each case the compounds were pre-incubated with the membrane for 20 min, before adding the radioligand.
After incubation with the radioligand for 60 min at 37° C., the incubation was terminated by rapid filtration of assay mixture through MultiScreen®HTS^+ 96-well filter plates (Millipore, Cat. #MSFCNXB), pre-soaked for 60 min with 50 mM Tris-HCl (pH 7.4) containing 0.33% polyethylenimine (PEI). The nonspecific binding (NSB) was determined in the presence of 10 μM unlabelled CP55,940. After drying the filter plate at 50° C. for at least 60 min, the filter-bound radioactivity was determined by scintillation spectrometry using the 1450 MicroBeta Plate Counter (Perkin Elmer, Boston, MA). From the dose-response experiments, the IC50 values were determined (see Table 1, CB2 IC50).

T1 sequence (P21554 whole entry): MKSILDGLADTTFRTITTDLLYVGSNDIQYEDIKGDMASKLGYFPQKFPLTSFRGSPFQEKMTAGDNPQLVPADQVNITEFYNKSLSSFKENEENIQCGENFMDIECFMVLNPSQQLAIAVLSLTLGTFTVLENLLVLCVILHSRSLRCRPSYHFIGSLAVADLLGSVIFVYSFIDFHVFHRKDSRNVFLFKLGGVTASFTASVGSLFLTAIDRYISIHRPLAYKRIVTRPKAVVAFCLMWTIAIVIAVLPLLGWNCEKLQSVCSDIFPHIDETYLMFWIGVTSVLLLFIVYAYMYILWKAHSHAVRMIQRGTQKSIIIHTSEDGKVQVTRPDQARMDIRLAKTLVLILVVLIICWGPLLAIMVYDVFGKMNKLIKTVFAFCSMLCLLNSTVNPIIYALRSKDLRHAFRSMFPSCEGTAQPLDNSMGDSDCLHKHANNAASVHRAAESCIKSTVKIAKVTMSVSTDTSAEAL

Row | SMILES | IC50 (human CB1 receptor [1]) | activity towards the human CB1 receptor in agonist mode (human CB1 receptor [2]) | IC50 (human CB1 receptor [3]) | Selectivity CB2 (fold difference in selectivity between CB1 and CB2 binding) (human CB2 receptor) | IC50 (human CB2 receptor) | Selectivity CB1 (fold difference in selectivity between CB1 and CB2 binding) (human CB1 receptor [1]; given in the column of the receptor with the higher binding affinity, 1.00 in both = about the same affinity)
1 | CCCCCCC(C)(C)c1cc(O)c(C2C=C(C)CCC2)c(OP(=O)(Cc2ccccc2)OC)c1 (stereo not drawn) [Example 38c, 6-hydroxy-5′-methyl-4-(2-methyloctan-2-yl)-1′,2′,3′,4′-tetrahydro-[1,1′-biphenyl]-2-yl methyl benzylphosphonate] | 1000 to 4990 nM | minimal to no activity | 780 to 3000 nM | 4.96 fold | 500 to 990 nM | –
2 | C=C(C)C1CCC(C)=CC1c1c(O)cc(C(C)(C)CCCCCC)cc1OP(=O)(Cc1ccccc1)OC (stereo not drawn) [Example 38d, 6-hydroxy-5′-methyl-4-(2-methyloctan-2-yl)-2′-(prop-1-en-2-yl)-1′,2′,3′,4′-tetrahydro-[1,1′-biphenyl]-2-yl methyl benzylphosphonate] | 500 to 990 nM | minimal to no activity | 780 to 3000 nM | 1.82 fold | < 500 nM | –
3 | CCCCCCC(C)(C)c1cc(O)c(C2C=C(C)CCC2)c(OP(=O)(OC)c2ccccc2)c1 (stereo not drawn) [Example 37c, 6-hydroxy-5′-methyl-4-(2-methyloctan-2-yl)-1′,2′,3′,4′-tetrahydro-[1,1′-biphenyl]-2-yl methyl phenylphosphonate] | – | minimal to no activity | 780 to 3000 nM | – | – | –
4 | C=C(C)C1CCC(C)=CC1c1c(O)cc(C(C)(C)CCCCCC)cc1OP(=O)(Cc1ccccc1)OCC (stereo not drawn) [Example 39d, ethyl (6-hydroxy-5′-methyl-4-(2-methyloctan-2-yl)-2′-(prop-1-en-2-yl)-1′,2′,3′,4′-tetrahydro-[1,1′-biphenyl]-2-yl) benzylphosphonate] | 500 to 990 nM | – | – | 1.10 fold | 500 to 990 nM | –
5 | C=C(C)C1CCC(C)=CC1c1c(O)cc(C(C)(C)CCCCCC)cc1OP(=O)(OC)c1ccccc1 (stereo not drawn) [Example 37d, 6-hydroxy-5′-methyl-4-(2-methyloctan-2-yl)-2′-(prop-1-en-2-yl)-1′,2′,3′,4′-tetrahydro-[1,1′-biphenyl]-2-yl methyl phenylphosphonate] | 500 to 990 nM | minimal to no activity | 780 to 3000 nM | 2.02 fold | < 500 nM | –
6 | CCCCCc1cc(OP(=O)(OCC)c2ccccc2)c(-c2cccc(C)c2)c(OP(=O)(OCC)c2ccccc2)c1 (stereo not drawn) [34′a, diethyl (3′-methyl-4-pentyl-[1,1′-biphenyl]-2,6-diyl) bis(phenylphosphonate)] | 1000 to 4990 nM | – | – | 1.95 fold | 1000 to 4990 nM | –
7 | CCCCCc1cc(O)c(-c2cccc(C)c2)c(OP(=O)(OCC)c2ccccc2)c1 (stereo not drawn) [Example 34a, ethyl (6-hydroxy-3′-methyl-4-pentyl-[1,1′-biphenyl]-2-yl) phenylphosphonate] | 1000 to 4990 nM | – | – | 10.26 fold | < 500 nM | –
8 | CCCCCc1cc(O)c(C2C=C(C)CCC2)c(OP(=O)(Cc2ccccc2)OCC)c1 (stereo not drawn) [Example 35c, ethyl (6-hydroxy-5′-methyl-4-pentyl-1′,2′,3′,4′-tetrahydro-[1,1′-biphenyl]-2-yl) benzylphosphonate] | ≥ 5000 nM | – | – | 3.25 fold | 1000 to 4990 nM | –
9 | CCCCCc1cc(O)c(C2C=C(C)CCC2)c(OP(=O)(Cc2ccccc2)OC)c1 (stereo not drawn) [Example 4c, 6-hydroxy-5′-methyl-4-pentyl-1′,2′,3′,4′-tetrahydro-[1,1′-biphenyl]-2-yl methyl benzylphosphonate] | 1000 to 4990 nM | – | – | 1.54 fold | 1000 to 4990 nM | –
10 | CCCCCc1cc(O)c(C2C=C(C)CCC2)c(OP(=O)(OCC)c2ccccc2)c1 (stereo not drawn) [Example 34c, ethyl (6-hydroxy-5′-methyl-4-pentyl-1′,2′,3′,4′-tetrahydro-[1,1′-biphenyl]-2-yl) phenylphosphonate] | 1000 to 4990 nM | – | – | 1.69 fold | 1000 to 4990 nM | –
11 | C=C(C)C1CCC(C)=CC1c1c(O)cc(CCCCC)cc1OP(=O)(Cc1ccccc1)OC (stereo not drawn) [Example 4d, 6-hydroxy-5′-methyl-4-pentyl-2′-(prop-1-en-2-yl)-1′,2′,3′,4′-tetrahydro-[1,1′-biphenyl]-2-yl methyl benzylphosphonate] | < 500 nM | minimal to no activity | 780 to 3000 nM | 1.00 fold | < 500 nM | 1.00 fold
12 | CCCCCc1cc(O)c(-c2cccc(C)c2)c(OP(=O)(Cc2ccccc2)OCC)c1 (stereo not drawn) [Example 35a, ethyl (6-hydroxy-3′-methyl-4-pentyl-[1,1′-biphenyl]-2-yl) benzylphosphonate] | – | – | – | – | 1000 to 4990 nM | –
